{
  "source": "patent US20260109693A1",
  "about": "“BUTENOLIDE COMPOUNDS CONTAINING THIAZOLIDINONE STRUCTURE AS WELL AS PREPARATION METHOD THEREFOR AND USE THEREOF” (priority 2023, published 2026)",
  "test_system": "Fusarium graminearum strains resistant to phenamacril",
  "type": "cell-based",
  "data": [
    {"substance": "5-(4-methyl-2-oxo-1-oxaspiro[4,5]-dec-3-en-3-ethylidene)-2-thio-4-thiazolidinone [Compound 3-1]", "values": [
      {"measurement": "inhibition rate on resistant strains compared with standard strain", "setting": "1 mg/L and 0.5 mg/L, resistant strains T10, T2-5, T32, T13, T12 vs standard strain 2021", "result": "the same as that of the standard wild-type Fusarium graminearum strain"},
      {"measurement": "growth inhibition of all resistant strains", "setting": "50 mg/L, resistant strains T2-5, T10, T32, T18, T48, T79", "result": "completely inhibit the growth of all resistant strains"}
    ]}
  ]
}
